The values below come from paper PMC8036409 (Molecules, 2021).

One assay relates to α-amylase. Nature of the assay: α-Amylase inhibition assay (DNS method). In kind it is biochemical. Particulars: for Percent Inhibition of α-Amylase (Mean ± S.E.M): n = 3. The method, then: The degree of inhibition was assessed by quantifying maltose equivalents using a slightly modified dinitrosalicylic acid (DNS) method. From each of the sample dilutions, 1 mL was pre-incubated with 1 U/mL α-amylase for half an hour. After incubation, 1 mL of 1% of starch solution was added to the mixture and further incubated for 10 min. To stop the reaction, 1 mL DNS reagent was added to the reaction mixture and heated in a boiling water bath for 5 min. […] The absorbance was measured at 540 nm.

For another assay, the target named is α-glucosidase (Saccharomyces cerevisiae, UniProt P53341). Nature of the assay: α-Glucosidase inhibition assay. The format is biochemical. The procedure: α-Glucosidase (0.5 unit/mL) was mixed with phosphate buffer (0.1 M, pH 6.9) to make enzyme stock solution. Likewise, a substrate solution (p-nitrophenyl-α-D-glucopyranoside) was also prepared in phosphate buffer. Each of the sample dilutions was mixed with 1 mL of the enzyme solution separately and incubated at 37 °C for 15 min. Sodium carbonate solution (80 µL of 0.2 M) was added to the reaction mixture to stop the reaction, and the absorbance was measured at 405 nm. The % enzyme inhibition was calculated as (5) % inhibition=Control absorbance−Test absorbance /Control absorbance × 100

The target of assay [1] is T1, acetylcholinesterase (AChE) (Homo sapiens, UniProt P22303). Put plainly: biochemical. The method, then: (§1) AChE and BChE were used as representative enzymes to determine the anticholinesterase effect of isolated compounds using Ellman’s assay with slight modifications. Sample stocks (5 mg/5 mL in methanol) were prepared and a range of serial dilutions (125, 250, 500, 1000 μg/mL) was made from each of them. Phosphate buffer (6.8 pH) was used for making the enzyme and substrate solutions.

Assay [2] in a line: ABTS free radical scavenging assay. Particulars: for ABTS Percent Inhibition (Mean ± S.E.M): n = 3. The procedure: (§2) The free radical scavenging capacity of the isolated compounds was determined using DPPH and ABTS assays. To prepare the DPPH stock solution, 30 mg of DPPH was dissolved in 100 mL of methanol. Likewise, to prepare ABTS stock solution, 383 mg of 7 mM ABTS and 66.2 mg of 2.45 mM K2S2O8 were taken, each of them was individually dissolved in 100 mL of methanol and mixed together thoroughly. For the free radical development, the solutions were kept in dark for one day. Different dilutions (62.5, 125, 250, 500, 1000 μg/mL) from each of the sample stock solutions (5 mg/5 mL of methanol) were prepared. Each of the dilutions (0.8 mL) was mixed with 0.8 mL of DPPH stock solution and incubated for 15 min and their absorbance was recorded at 515 nm. Likewise, 0.8 mL of each of the same dilutions was mixed with 2 mL of ABTS solution, incubated for 25 min and their absorbance was recorded at 745 nm. The percent scavenging potentials of compounds were calculated using the following equation:(1) Percent scavenging= A−B/A × 100, where A is the absorbance of oxidized stock (DPPH/ABTS) used as control, and B is the absorbance of the sample.

Assay [3] has as its target T1, acetylcholinesterase (AChE). Put plainly: biochemical. Conditions: read-out: Percent AChE (Mean ± SEM), %inhibition.
The nature of assay [4]: DPPH free radical scavenging assay. Conditions: for DPPH Percent Inhibition (Mean ± S.E.M): n = 3. The procedure:
as §2

The target in assay [5] is T2, butyrylcholinesterase (BChE) (Homo sapiens, UniProt P06276). Nature of the assay: Butyrylcholinesterase inhibition, Ellman's assay. The format is biochemical. The procedure:
as §1
(In general: DTNB colorimetry detects thiols as they appear.)

Assay [6] concerns the target T2, butyrylcholinesterase (BChE). Nature of the assay: Butyrylcholinesterase inhibition, Ellman's assay. The format is biochemical. Particulars: read-out: Percent BChE (Mean ± SEM), %inhibition.
Setting [7] is: read-out: Percent AChE (Mean ± SEM), %inhibition.
The mark [8] stands for this setting: read-out: Percent BChE (Mean ± SEM), %inhibition.

What is called IC50 is the point on the concentration scale where inhibition reaches its midpoint. One may read the inhibition as how much of the control response was suppressed.

Values joined by “and” are separate entries in the source; they are usually repeats but may differ in a detail not shown here. Equal values may be shown once.

Sequence of α-glucosidase (P53341 whole entry): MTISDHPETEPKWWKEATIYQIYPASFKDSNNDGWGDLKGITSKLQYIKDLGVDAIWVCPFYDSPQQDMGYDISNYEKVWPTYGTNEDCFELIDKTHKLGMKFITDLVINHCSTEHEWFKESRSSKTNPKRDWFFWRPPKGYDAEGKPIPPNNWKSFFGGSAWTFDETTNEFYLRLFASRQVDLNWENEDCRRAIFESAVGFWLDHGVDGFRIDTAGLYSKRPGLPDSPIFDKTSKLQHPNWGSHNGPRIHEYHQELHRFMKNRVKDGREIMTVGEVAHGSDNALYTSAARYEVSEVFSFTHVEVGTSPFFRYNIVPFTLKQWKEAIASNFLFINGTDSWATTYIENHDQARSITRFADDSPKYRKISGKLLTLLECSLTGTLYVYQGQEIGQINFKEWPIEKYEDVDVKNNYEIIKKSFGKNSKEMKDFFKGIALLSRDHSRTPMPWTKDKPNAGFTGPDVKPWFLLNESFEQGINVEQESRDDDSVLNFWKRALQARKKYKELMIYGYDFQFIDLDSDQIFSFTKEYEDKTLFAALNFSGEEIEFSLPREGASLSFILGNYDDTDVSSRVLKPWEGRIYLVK
T2 sequence (P06276 29-602, species assumed): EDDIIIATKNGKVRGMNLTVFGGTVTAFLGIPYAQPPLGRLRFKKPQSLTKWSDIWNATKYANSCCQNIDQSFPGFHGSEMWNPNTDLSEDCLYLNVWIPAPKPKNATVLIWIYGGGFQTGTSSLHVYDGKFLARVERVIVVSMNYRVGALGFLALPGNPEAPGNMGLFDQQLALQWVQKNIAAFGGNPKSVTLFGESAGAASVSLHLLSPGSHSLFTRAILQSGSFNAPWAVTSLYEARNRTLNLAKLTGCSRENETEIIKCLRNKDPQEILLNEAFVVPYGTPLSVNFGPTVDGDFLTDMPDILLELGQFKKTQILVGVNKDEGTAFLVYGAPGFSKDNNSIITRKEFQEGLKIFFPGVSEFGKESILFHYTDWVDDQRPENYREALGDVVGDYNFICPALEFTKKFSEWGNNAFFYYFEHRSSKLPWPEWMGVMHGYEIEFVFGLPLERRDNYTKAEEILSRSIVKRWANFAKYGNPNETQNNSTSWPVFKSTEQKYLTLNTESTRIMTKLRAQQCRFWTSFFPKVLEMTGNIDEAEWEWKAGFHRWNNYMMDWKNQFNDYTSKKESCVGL
T1 sequence (P22303 32-614, species assumed): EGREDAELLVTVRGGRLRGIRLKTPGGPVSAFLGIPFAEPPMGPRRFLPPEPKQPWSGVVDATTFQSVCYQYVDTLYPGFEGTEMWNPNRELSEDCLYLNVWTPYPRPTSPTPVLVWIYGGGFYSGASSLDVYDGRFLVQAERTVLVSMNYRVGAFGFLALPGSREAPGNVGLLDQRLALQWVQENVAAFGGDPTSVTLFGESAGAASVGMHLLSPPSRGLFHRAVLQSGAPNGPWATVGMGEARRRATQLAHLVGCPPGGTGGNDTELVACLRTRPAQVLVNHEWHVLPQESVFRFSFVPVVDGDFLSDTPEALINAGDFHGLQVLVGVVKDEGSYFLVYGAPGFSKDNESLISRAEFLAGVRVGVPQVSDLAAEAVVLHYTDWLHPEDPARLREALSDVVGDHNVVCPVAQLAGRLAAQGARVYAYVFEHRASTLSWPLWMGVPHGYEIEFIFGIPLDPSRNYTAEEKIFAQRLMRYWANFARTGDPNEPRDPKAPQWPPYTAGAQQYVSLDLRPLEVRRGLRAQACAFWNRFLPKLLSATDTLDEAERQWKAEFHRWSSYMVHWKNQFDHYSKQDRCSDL

In the case of `C[C@H]1O[C@H](O[C@H]2[C@H](O)[C@@H](O)[C@@H](O[C@H]3[C@H](O)[C@@H](O)C(O)O[C@@H]3CO)O[C@@H]2CO)[C@H](O)[C@@H](O)[C@@H]1N[C@H]1C=C(CO)[C@@H](O)[C@H](O)[C@H]1O` (stereo partly shown) [Acarbose, reference compound], the “Percent Inhibition of α-Amylase (Mean ± S.E.M)” value was determined as 48.13 ± 2.09% in the assay with α-amylase (62.5 μg/mL); 57.03 ± 1.19% with α-amylase (125 μg/mL); 66.37 ± 1.18% with α-amylase (250 μg/mL); 77.11 ± 1.41% with α-amylase (500 μg/mL); 92.12 ± 0.83% with α-amylase (1000 μg/mL). On α-glucosidase, the “Percent Inhibition of α-Glucosidase (Mean ± S.E.M)” value was 93.72 ± 1.03% and 67.16 ± 1.58% and 58.73 ± 1.09% and 48.76 ± 2.20%.
Regarding `CC(C)CCCCC1CC2CC(C)(C)C3C4CC(C)(C)C5CC(O)CC(C)C5C4CC(C)C3C2C1` (stereo not shown) [Compound IX, 5,5,7,7,11,13-hexamethyl-2-(5-methylhexyl)icosahydro-1H-cyclopenta[a]chrysen-9-ol], the IC50 in assay [1] (read-out: AChE IC50 (converted)) and in assay [5] was 186 µM in each case. Besides, the inhibition at 250 µg/mL in assay [1] (setting [7]) was 63.1 ± 1.51%; in assay [5] (setting [8]), 63 ± 1.45%. Besides, the inhibition at 500 µg/mL in assay [1] (setting [7]) turned out to be 71.3 ± 1.37%; in assay [5] (setting [8]) it was 70.2 ± 0.71%. The inhibition at 1000 µg/mL in assay [1] (setting [7]) is 78.11 ± 0.61%; in assay [5] (setting [8]), 78 ± 2.62%. The “ABTS IC50” value in assay [2] was 76 µg/mL. Besides, the “ABTS Percent Inhibition (Mean ± S.E.M)” value in assay [2] (62.5 μg/mL) came out at 47.83 ± 2.26%; in assay [2] (125 μg/mL), 57.19 ± 2.01%; in assay [2] (250 μg/mL) it was 62.24 ± 2.30%; in assay [2] (500 μg/mL), 71.29 ± 1.11%; in assay [2] (1000 μg/mL), 79.23 ± 1.01%. Moreover, the “α-Amylase IC50” value at α-amylase is 122 µg/mL. In addition, the “Percent Inhibition of α-Amylase (Mean ± S.E.M)” value turned out to be 40.13 ± 1.27 % in the assay on α-amylase (62.5 μg/mL); 50.61 ± 1.52 % in the assay on α-amylase (125 μg/mL); 59.14 ± 0.82 % in the assay on α-amylase (250 μg/mL); 65.13 ± 1.43 % in the assay with α-amylase (500 μg/mL); 70.21 ± 1.91 % with α-amylase (1000 μg/mL). Further, the inhibition at 62.5 µg/mL in assay [3] amounted to 46 ± 1.71%; in assay [6], 45.9 ± 1.26%. The “DPPH IC50” value in assay [4] worked out at 76 µg/mL. Further, the “DPPH Percent Inhibition (Mean ± S.E.M)” value is listed as 47.85 ± 2.61% in assay [4] (62.5 μg/mL), 64.11 ± 2.91% in assay [4] (250 μg/mL), 72.19 ± 2.17% in assay [4] (500 μg/mL) and 80.21 ± 040 ^ns percent in assay [4] (1000 μg/mL). In assay [5] (setting [8]), the inhibition at 125 µg/mL was 55.4 ± 1.01%.
